Experimental data: patent US9662327B2 (AGIOS PHARMACEUTICALS, INC, priority 2011, dated 2017)
Read-outs that look alike come from different tables or passages of the source.

Target: IDH1 R132H (Homo sapiens (Human), UniProt O75874, R132H)
Experiment: Assays for IDH1 R132H Inhibitors (NADPH/aKG, resazurin detection)
Format: biochemical
Conditions: IDH1 R132H enzyme
Outline: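 Substrate mix held 8 uM NADPH plus 2 mM aKG; buffer was 20 mM Tris pH 7.5 with 150 mM NaCl, 10 mM MgCl2, 0.03% BSA. After 50 min room-temperature reaction, NADPH remaining was detected with 30 μM resazurin mix over 5 min.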

[1] = Table 2, read-out: IDHR132H Activity

IDH1 R132H, sequence (O75874 whole entry R132H): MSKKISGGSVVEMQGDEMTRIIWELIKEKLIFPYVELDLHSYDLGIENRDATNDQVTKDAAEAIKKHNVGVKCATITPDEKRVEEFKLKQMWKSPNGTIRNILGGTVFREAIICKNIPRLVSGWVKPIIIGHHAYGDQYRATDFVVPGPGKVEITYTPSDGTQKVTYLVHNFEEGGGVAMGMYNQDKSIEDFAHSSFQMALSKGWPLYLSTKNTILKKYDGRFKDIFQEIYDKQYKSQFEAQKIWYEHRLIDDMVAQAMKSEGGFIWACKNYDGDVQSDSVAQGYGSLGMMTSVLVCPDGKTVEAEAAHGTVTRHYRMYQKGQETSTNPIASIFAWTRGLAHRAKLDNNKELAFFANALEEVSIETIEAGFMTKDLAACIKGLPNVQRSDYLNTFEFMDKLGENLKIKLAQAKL

| IC50 [1] [µM] | IC50 (Table 3, read-out: R132H IC50) [µM] | Structure (SMILES) |
| --- | --- | --- |
| 1 to 10 | – | COc1ccc(OC(=O)N2CCN(c3nc(C4CC4)c4c(c3C#N)CC(C)(C)OC4)C[C@H]2C(C)C)cc1 [Compound 337, (R)-4-methoxyphenyl 4-(5-cyano-8-cyclopropyl-3,3-dimethyl-3,4-dihydro-1H-pyrano[3,4-c]pyridine-6-yl)-2-isopropylpiperazine-1-carboxylate] |
| 1 to 10 | – | CC(C)[C@@H]1CN(c2nc(C3CC3)c3c(c2C#N)CC(C)(C)OC3)CCN1C(=O)COCc1ccco1 [Compound 404, (R)-8-cyclopropyl-6-(4-(2-(furan-2-ylmethoxy)acetyl)-3-isopropylpiperazin-1-yl)-3,3-dimethyl-3,4-dihydro-1H-pyrano[3,4-c]pyridine-5-carbonitrile] |
| 0.5 to 1 | – | CCOC(=O)[C@H]1CN(c2nc(C(C)C)c3c(c2C#N)CC(C)(C)OC3)CCN1C(=O)c1ccoc1 [Compound 410] |
| – | 0.5 to 1 | COCCC(=O)N1CCN(c2nc(C3CC3)c3c(c2C#N)CCN(CCO)C3)C[C@H]1C1CC1 [Compound 484, (R)-1-cyclopropyl-3-(3-cyclopropyl-4-(3-methoxypropanoyl)piperazin-1-yl)-7-(2-hydroxyethyl)-5,6,7,8-tetrahydro-2,7-naphthyridine-4-carbonitrile] |
| 1 to 10 | – | C[C@@H]1CN(c2nc(C3CCCC3)c3c(c2C#N)CCOC3)C[C@H](C)N1C(=O)c1ccco1 [Compound 126, 8-cyclopentyl-6-((3S,5R)-4-(furan-2-carbonyl)-3,5-dimethylpiperazin-1-yl)-3,4-dihydro-1H-pyrano[3,4-c]pyridine-5-carbonitrile] |
| 1 to 10 | – | CCOC(=O)C1CN(c2nc(C(C)C)c3c(c2C#N)CC(C)(C)OC3)CCN1C(=O)OC (centres unmarked) [Compound 333, 2-ethyl 1-methyl 4-(5-cyano-8-isopropyl-3,3-dimethyl-3,4-dihydro-1H-pyrano[3,4-c]pyridine-6-yl)piperazine-1,2-dicarboxylate] |
| 0.5 to 1 | – | CC(C)c1nc(N2CCN(C(=O)c3ccco3)[C@@H](c3ccccc3)C2)c(C#N)c2c1COC(C)(C)C2 [Compound 223, (S)-6-(4-(furan-2-carbonyl)-3-phenylpiperazin-1-yl)-8-isopropyl-3,3-dimethyl-3,4-dihydro-1H-pyrano[3,4-c]pyridine-5-carbonitrile] |
| 1 to 10 | – | CC(C)[C@@H]1CN(c2nc(C3CC3)c3c(c2C#N)CC(C)(C)OC3)CCN1C(=O)c1cnn2cccnc12 [Compound 232, (R)-8-cyclopropyl-6-(3-isopropyl-4-(pyrazolo[1,5-a]pyrimidine-3-carbonyl)piperazin-1-yl)-3,3-dimethyl-3,4-dihydro-1H-pyrano[3,4-c]pyridine-5-carbonitrile] |
| 1 to 10 | – | C[C@@H]1CN(c2nc(C3CCCCC3)c3c(c2C#N)CCOC3)CCN1C(=O)NC1CC1 [Compound 360, (R)-4-(5-cyano-8-cyclohexyl-3,4-dihydro-1H-pyrano[3,4-c]pyridin-6-yl)-N-cyclopropyl-2-methylpiperazine-1-carboxamide] |
| < 0.5 | – | CC[C@@H]1CN(c2nc(C3CC3)c3c(c2C#N)CC(C)(C)OC3)CCN1C(=O)c1ccoc1C [Compound 237, (R)-8-cyclopropyl-6-(3-ethyl-4-(2-methylfuran-3-carbonyl)piperazin-1-yl)-3,3-dimethyl-3,4-dihydro-1H-pyrano[3,4-c]pyridine-5-carbonitrile] |
| 1 to 10 | – | CC[C@@H]1CN(c2nc(C3CC3)c3c(c2C#N)CC(C)(C)OC3)CCN1C(=O)Cc1ccccn1 [Compound 290] |
| 1 to 10 | – | Cc1ncoc1C(=O)N1CCN(c2nc(C(C)C)c3c(c2C#N)CC(C)(C)OC3)C[C@H]1C [Compound 197, (R)-8-isopropyl-3,3-dimethyl-6-(3-methyl-4-(4-methyloxazole-5-carbonyl)piperazin-1-yl)-3,4-dihydro-1H-pyrano[3,4-c]pyridine-5-carbonitrile] |
| 1 to 10 | – | CON(C)CC(=O)N1CCN(c2nc(C3CC3)c3c(c2C#N)CC(C)(C)OC3)C[C@H]1C(C)C [Compound 338] |
| 1 to 10 | – | CCNC(=O)N1CCN(c2nc(C3CCCCC3)c3c(c2C#N)CCOC3)C[C@H]1C [Compound 335, (R)-4-(5-cyano-8-cyclohexyl-3,4-dihydro-1H-pyrano[3,4-c]pyridin-6-yl)-N-ethyl-2-methylpiperazine-1-carboxamide] |
| 1 to 10 | – | CCOC(=O)C1CN(c2nc(C3CC3)c3c(c2C#N)CC(C)(C)OC3)CCN1C(=O)c1ccoc1 (centres unmarked) [Compound 259, ethyl 4-(5-cyano-8-cyclopropyl-3,3-dimethyl-3,4-dihydro-1H-pyrano[3,4-c]pyridin-6-yl)-1-(furan-3-carbonyl)piperazine-2-carboxylate] |
| 1 to 10 | – | CCOC(=O)C1CN(c2nc(C3CCCCC3)c3c(c2C#N)CCOC3)CCN1C(=O)c1ccco1 (centres unmarked) [Compound 314, ethyl 4-(5-cyano-8-cyclohexyl-3,4-dihydro-1H-pyrano[3,4-c]pyridin-6-yl)-1-(furan-2-carbonyl) piperazine-2-carboxylate] |

| IC50 [1] [µM] | IC50 (Table 3, read-out: R132H IC50) [µM] | Structure (SMILES) |
| --- | --- | --- |
| 1 to 10 | – | CC(C)c1nc(N2CCN(C(=O)c3ccoc3)[C@H](c3ccccc3)C2)c(C#N)c2c1COC(C)(C)C2 [Compound 256, (R)-6-(4-(furan-3-carbonyl)-3-phenylpiperazin-1-yl)-8-isopropyl-3,3-dimethyl-3,4-dihydro-1H-pyrano[3,4-c]pyridine-5-carbonitrile] |
| 1 to 10 | – | CC1CN(c2nc(C3CCCCC3)c3c(c2C#N)CCOC3)CCN1C(=O)c1ccc2[nH]ccc2c1 (centres unmarked) [Compound 134, 6-(4-(1H-indole-5-carbonyl)-3-methylpiperazin-1-yl)-8-cyclohexyl-3,4-dihydro-1H-pyrano[3,4-c]pyridine-5-carbonitrile] |
| 1 to 10 | – | CCCOC(=O)N1CCN(c2nc(C(C)C)c3c(c2C#N)CC(C)(C)OC3)CC1C(=O)OCC (centres unmarked) [Compound 364, 2-ethyl 1-propyl 4-(5-cyano-8-isopropyl-3,3-dimethyl-3,4-dihydro-1H-pyrano[3,4-c]pyridin-6-yl)piperazine-1,2-dicarboxylate] |
| 0.5 to 1 | – | CC[C@@H]1CN(c2nc(C3CC3)c3c(c2C#N)CC(C)(C)OC3)CCN1C(=O)Cc1ccccc1OC [Compound 295] |
| < 0.5 | – | CC(C)[C@@H]1CN(c2nc(C3CCC3)c3c(c2C#N)CC(C)(C)OC3)CCN1C(=O)c1ccoc1 [Compound 288, (R)-8-cyclobutyl-6-(4-(furan-3-carbonyl)-3-isopropylpiperazin-1-yl)-3,3-dimethyl-3,4-dihydro-1H-pyrano[3,4-c]pyridine-5-carbonitrile] |
| 1 to 10 | – | C[C@@H]1CN(C(=O)c2ccco2)CCN1c1nc(C2CC2)c2c(c1C#N)CC(C)(C)OC2 [Compound 204, (R)-8-cyclopropyl-6-(4-(furan-2-carbonyl)-2-methylpiperazin-1-yl)-3,3-dimethyl-3,4-dihydro-1H-pyrano[3,4-c]pyridine-5-carbonitrile] |
| 1 to 10 | – | C[C@@H]1CN(c2nc(C3CCCCC3)c3c(c2C#N)CC(C)(C)OC3)CCN1C(=O)c1ccco1 [Compound 150, (R)-8-cyclohexyl-6-(4-(furan-2-carbonyl)-3-methylpiperazin-1-yl)-3,3-dimethyl-3,4-dihydro-1H-pyrano[3,4-c]pyridine-5-carbonitrile] |
| 1 to 10 | – | C[C@H]1CN(C(=O)c2ccco2)CCN1c1nc(C2CC2)c2c(c1C#N)CC(C)(C)OC2 [Compound 203, (S)-8-cyclopropyl-6-(4-(furan-2-carbonyl)-2-methylpiperazin-1-yl)-3,3-dimethyl-3,4-dihydro-1H-pyrano[3,4-c]pyridine-5-carbonitrile] |
| 1 to 10 | – | CC(C)c1nc(N2CCN(C(=O)c3ccoc3)[C@H](C)C2)c(C#N)c2c1COCC2 [Compound 140, (R)-6-(4-(furan-3-carbonyl)-3-methylpiperazin-1-yl)-8-isopropyl-3,4-dihydro-1H-pyrano[3,4-c]pyridine-5-carbonitrile] |
| 1 to 10 | – | CCOC(=O)C1CN(c2nc(C3CCCCC3)c3c(c2C#N)CCOC3)CCN1C(=O)c1ccoc1C (centres unmarked) [Compound 277, ethyl 4-(5-cyano-8-cyclohexyl-3,4-dihydro-1H-pyrano[3,4-c]pyridin-6-yl)-1-(2-methylfuran-3-carbonyl)piperazine-2-carboxylate] |
| < 0.5 | – | C=CCNC(=O)N1CCN(c2nc(C3CC3)c3c(c2C#N)CC(C)(C)OC3)C[C@H]1C(C)C [Compound 304, (R)—N-allyl-4-(5-cyano-8-cyclopropyl-3,3-dimethyl-3,4-dihydro-1H-pyrano[3,4-c]pyridin-6-yl)-2-isopropylpiperazine-1-carboxamide] |
| 0.5 to 1 | – | CC(C)[C@@H]1CN(c2nc(C3CC3)c3c(c2C#N)CC(C)(C)OC3)CCN1C(=O)Cn1cc(Br)cn1 [Compound 415, (R)-6-(4-(2-(4-bromo-1H-pyrazol-1-yl)acetyl)-3-isopropylpiperazin-1-yl)-8-cyclopropyl-3,3-dimethyl-3,4-dihydro-1H-pyrano[3,4-c]pyridine-5-carbonitrile] |
| 0.5 to 1 | – | COc1cccc(CC(=O)N2CCN(c3nc(C4CC4)c4c(c3C#N)CC(C)(C)OC4)C[C@H]2C(C)C)c1 [Compound 254] |
| 0.5 to 1 | – | CC(C)[C@@H]1CN(c2nc(C3CCC3)c3c(c2C#N)CC(C)(C)OC3)CCN1C(=O)C1CC1 [Compound 396, (R)-8-cyclobutyl-6-(4-(cyclopropanecarbonyl)-3-isopropylpiperazin-1-yl)-3,3-dimethyl-3,4-dihydro-1H-pyrano[3,4-c]pyridine-5-carbonitrile] |
| 1 to 10 | – | C[C@@H]1CN(c2nc(C3CC3)c3c(c2C#N)CC(C)(C)OC3)CCN1C(=O)c1ccco1 [Compound 167] |
| 1 to 10 | – | CC(C)[C@@H]1CN(c2nc(C3CC3)c3c(c2C#N)CC(C)(C)OC3)CCN1C(=O)CNC1CC1 [Compound 372, (R)-8-cyclopropyl-6-(4-(2-(cyclopropylamino)acetyl)-3-isopropylpiperazin-1-yl)-3,3-dimethyl-3,4-dihydro-1H-pyrano[3,4-c]pyridine-5-carbonitrile] |
